Results published in the supplement of paper PMC10307832.

Tests used:
Assay in all cases: relative viability (nuclei count vs DMSO), 5 days (fraction); higher = more cells survive
Dasatinib + Pemetrexed = compound: Cc1nc(Nc2ncc(C(=O)Nc3c(C)cccc3Cl)s2)cc(N2CCN(CCO)CC2)n1 [Dasatinib] + Nc1nc2[nH]cc(CCc3ccc(C(=O)N[C@@H](CCC(=O)O)C(=O)O)cc3)c2c(=O)[nH]1 [Pemetrexed] (partner 0.2 µM)
Procedure, shortened: (§1)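 Lung cancer cell lines in 1536-well plates got either a single drug or a fixed anchor-drug dose together with five library-drug doses (not always all listed) in √10 steps, by pin tool, on the day after seeding. Nuclei were counted after 5 days, and relative viability is the treated-to-vehicle ratio of nuclei counts. Values are medians of duplicate plates.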

XMD13-2 + Phenformin = compound: C1CC1C(=O)NC2=NNC3=C2C=CC(=C3)C4=CC(=CC=C4)C(=O)NC5CC5 [XMD13-2] + N=C(N)NC(=N)NCCc1ccccc1 [Phenformin] (partner 250 µM)
Procedure, shortened: as §1

XMD13-2 + Navitoclax = compound: C1CC1C(=O)NC2=NNC3=C2C=CC(=C3)C4=CC(=CC=C4)C(=O)NC5CC5 [XMD13-2] + CC1(C)CCC(c2ccc(Cl)cc2)=C(CN2CCN(c3ccc(C(=O)NS(=O)(=O)c4ccc(N[C@H](CCN5CCOCC5)CSc5ccccc5)c(S(=O)(=O)C(F)(F)F)c4)cc3)CC2)C1 [Navitoclax] (partner 0.5 µM)
Procedure, shortened: as §1

ALW-II-49-7 + Phenformin = compound: Cc1ccc(C(=O)Nc2cccc(C(F)(F)F)c2)cc1Nc1cncc(C(N)=O)c1 [ALW-II-49-7] + N=C(N)NC(=N)NCCc1ccccc1 [Phenformin] (partner 250 µM)
Procedure, shortened: as §1

Cell Line	relative viability (Dasatinib + Pemetrexed; first compound 0.005 µM)	relative viability (Dasatinib + Pemetrexed; first compound 0.01581 µM)	relative viability (Dasatinib + Pemetrexed; first compound 0.05 µM)	relative viability (Dasatinib + Pemetrexed; first compound 0.1581 µM)	relative viability (Dasatinib + Pemetrexed; first compound 0.5 µM)	relative viability (XMD13-2 + Phenformin; first compound 0.05 µM)	relative viability (XMD13-2 + Phenformin; first compound 0.1581 µM)	relative viability (XMD13-2 + Phenformin; first compound 0.5 µM)	relative viability (XMD13-2 + Phenformin; first compound 1.581 µM)	relative viability (XMD13-2 + Phenformin; first compound 5 µM)	relative viability (XMD13-2 + Navitoclax; first compound 0.05 µM)	relative viability (XMD13-2 + Navitoclax; first compound 0.1581 µM)	relative viability (XMD13-2 + Navitoclax; first compound 0.5 µM)	relative viability (XMD13-2 + Navitoclax; first compound 1.581 µM)	relative viability (XMD13-2 + Navitoclax; first compound 5 µM)	relative viability (ALW-II-49-7 + Phenformin; first compound 0.08 µM)	relative viability (ALW-II-49-7 + Phenformin; first compound 0.253 µM)	relative viability (ALW-II-49-7 + Phenformin; first compound 0.8 µM)	relative viability (ALW-II-49-7 + Phenformin; first compound 2.53 µM)	relative viability (ALW-II-49-7 + Phenformin; first compound 8 µM)
NCI-H596	0.486	0.47	0.439	0.415	0.359	0.768	0.863	0.78	0.913	0.836	0.99	0.975	0.917	0.898	1.15	0.804	0.706	0.596	0.622	0.788
NCI-H647	0.156	0.137	0.117	0.0903	0.0883	0.697	0.605	0.678	0.659	0.435	1.21	1.08	1.23	1.15	0.735	0.312	0.325	0.551	0.539	0.326
NCI-H838	0.26	0.241	0.218	0.176	0.214	0.663	0.538	0.65	0.544	0.632	1.26	1.16	1.13	1.22	1.18	0.412	0.45	0.628	0.626	0.442
NCI-H1355	1.04	0.92	1.1	0.806	0.663	0.5	0.451	0.465	0.462	0.517	0.971	0.941	0.904	0.899	0.89	0.457	0.4	0.4	0.443	0.379
NCI-H1395	0.987	1.01	0.603	0.369	0.368	0.449	0.446	0.435	0.429	0.45	1.25	1.16	1.23	1.11	1.1	0.438	0.512	0.419	0.475	0.428
NCI-H1437	0.351	0.336	0.287	0.256	0.203	0.297	0.305	0.299	0.311	0.341	1.12	1.09	1.09	1.05	1.09	0.266	0.297	0.301	0.297	0.263
NCI-H1650	0.341	0.38	0.287	0.285	0.268	0.634	0.476	0.552	0.432	0.558	1.07	1.05	0.993	1.33	1.52	0.447	0.465	0.427	0.492	0.476
NCI-H1651	0.58	0.506	0.485	0.545	0.426	0.382	0.323	0.392	0.37	0.343	1.28	1.04	1	1.2	0.947	0.345	0.312	0.376	0.317	0.321
